Publication PMC9146377, “Design and Synthesis of Novel Bis-Imidazolyl Phenyl Butadiyne Derivatives as HCV NS5A Inhibitors” (Pharmaceuticals, 2022)
Like-named read-outs stand apart in the source and are kept apart here.

Experiments:
[1] = tested on: HCV genotype 1b Con-1 subgenomic replicon; assay: Anti-HCV luciferase assay, genotype 1b (Con1) subgenomic replicon in Huh5-2 cells; assay type: cell-based, Hepatitis C virus; conditions: for HCV Replicon 1b SI50: CC50/EC50, Huh5-2 cells; for EC50: mean of three experiments
Method: (§1) All synthesized compounds were tested against HCV genotype 1b Con-1 subgenomic replicon in the Huh-5-2 stable cell line. Specifically, their activity against viral replication was estimated by measuring firefly luciferase, which is co-expressed by the bicistronic replicon, and their half-maximal effective concentrations (EC50) were determined. In parallel, the half-maximal cytotoxic concentrations (CC50) of the compounds were estimated, and their selective indexes (SI50: CC50/ EC50) were calculated. All novel synthesized compounds were active against HCV 1b with EC50 < 1 µM except for compound 4b (Table 3).
Huh5-2 [65] and Huh7-JFH1 [66] stable cell lines harbor the subgenomic HCV reporter replicon I389luc-ubi-neo/NS3-3′/Con1/5.1 (genotype 1b; strain Con1) and I389luc-ubi-neo/NS3-3′_dg_JFH1 (genotype 2a, JFH1 strain), respectively (kindly provided by R. Bartenschlager, Heidelberg University, Heidelberg, Germany). Huh7.5-3a and Huh7.5-4a stable cell lines harbor the subgenomic HCV reporter replicon S52-SG (Feo) (AII) (genotype 3a; S52 strain) and ED43-SG (Feo) (VYG) (genotype 4a; ED43 strain), respectively (viral constructs kindly provided by C.M. Rice, Rockefeller University, New York, NY, USA). These replicons carry as a first cistron firefly luciferase (F-Luc) and neomycin phosphotransferase genes under the translational control of the HCV internal ribosome entry site (IRES), followed by HCV NS3 to NS5B proteins under the control of the EMCV IRES.
The anti-HCV assay in replicon cells was performed by seeding 1 × 10^4 cells per well in a 96-well plate. After 24 h of incubation at 37 °C (5% CO2) and medium removal, serial dilutions of the test compounds in complete DMEM were added. Cells were lysed after 72 h, and F-Luc activity was measured. The anti-HCV assay for the full-length viral construct H77S.3/GLuc2A was performed after electroporation of Huh7-Lunet cells with viral RNA. Cells were seeded in 96-well plates, the medium was removed 24 h after electroporation, and serial dilutions of the compounds in complete DMEM were added. At 72 h post-treatment, cell supernatants were collected, and G-Luc activity was measured. In addition, the cells were lysed for total protein quantification.
Relative luminescence units (RLU) were expressed as a percentage of the respective units derived from DMSO-treated cells (control). The half-maximal effective concentration (EC50), defined as the concentration of compound that reduces luciferase signal by 50%, was calculated by dose-response curve analysis using Prism 5.0 software (GraphPad Software Inc., San Diego, CA, USA).
The F-Luc activity was measured using the Luciferase Assay System (Promega, Madison, WI, USA), as recommended by the manufacturer. The G-Luc activity was measured using 12 μM coelenterazine (Promega) in assay buffer (50 mM potassium phosphate, pH 7.4, 500 mM NaCl, 1 mM EDTA). Measurements were carried out using a GloMax 20/20 single tube luminometer (Promega) for 10 s. The F-Luc activity was normalized to the total protein amount determined using the Bradford assay reagent (Pierce, Waltham, MA, USA).

[2] = Cytotoxicity assay (intracellular ATP levels) in Huh5-2 replicon cells; assay type: cell-based; conditions: human, Huh5-2 cells, read-out: HCV Replicon 1b CC50
Method: as §1
Intracellular ATP levels were measured to determine the cytotoxicity of the compounds in the treated cells. In 96-well plates, 10^4 cells per well were seeded, incubated with serial dilutions of the compounds or DMSO as a control for 72 h at 37 °C (5% CO2) and lysed for ATP measurement. ATP levels were measured using the ViaLight HS BioAssay kit (Lonza, Basel, Switzerland) in a GloMax 20/20 single-tube luminometer (Promega) for 1 s, according to the manufacturer’s protocol. Values were normalized to total protein amounts and used to determine the compound concentration causing 50% cell death (CC50). Nonlinear regression analysis was performed using Prism 5.0 software (GraphPad Software Inc., San Diego, CA, USA).

[3] = Hepatitis C virus, Huh-5-2, 72 h, Huh5-2 cells, Con1 strain, F-Luc, 72 h, read-out: HCV Replicon 1b EC50
[4] = Hepatitis C virus, Huh-5-2, 72 h, read-out: HCV Replicon 1b EC50, Huh5-2 cells, Con1 strain, F-Luc, 72 h

COC(=O)N[C@H](C(=O)N1CCC[C@H]1c1nc(-c2ccc(-c3ccc(-c4c[nH]c([C@@H]5CCCN5C(=O)[C@@H](NC(=O)OC)C(C)C)n4)cc3)cc2)c[nH]1)C(C)C [Daclatasvir, reference compound]
HCV Replicon 1b SI50 [1]: 655,556 | EC50 [1, 3]: 0.027 nM | CC50 at 72 h [2]: 17700 nM

COC(=O)N[C@H](C(=O)N1CCC[C@H]1c1ncc(-c2cccc(C#CC#Cc3cccc(-c4cnc([C@@H]5CCCN5C(=O)[C@@H](NC(=O)OC)C(C)C)[nH]4)c3)c2)[nH]1)C(C)C [Compound 1a, Dimethyl ((2S,2′S)-((2S,2′S)-((buta-1,3-diyne-1,4-diylbis(3,1-phenylene))bis(1H-imidazole-5,2-diyl))bis(pyrrolidine-2,1-diyl))bis(3-methyl-1-oxobutane-1,2diyl))dicarbamate]
EC50 [1, 4]: 166 nM | CC50 at 72 h [2]: > 100000 nM

CCCCOC(=O)N[C@H](C(=O)N1CCC[C@H]1c1ncc(-c2cccc(C#CC#Cc3cccc(-c4cnc([C@@H]5CCCN5C(=O)[C@@H](NC(=O)OCCCC)C(C)C)[nH]4)c3)c2)[nH]1)C(C)C [Compound 4a, Dibutyl ((2S,2′S)-((2S,2′S)-((buta-1,3-diyne-1,4-diylbis(3,1-phenylene))bis(1H-imidazole-5,2-diyl))bis(pyrrolidine-2,1-diyl))bis(3-methyl-1-oxobutane-1,2-diyl))dicarbamate]
HCV Replicon 1b SI50 [1]: >110.89 | EC50 [1, 3]: 902 nM | CC50 at 72 h [2]: > 100000 nM

COC(=O)N[C@@H](C(=O)N1CCC[C@H]1c1ncc(-c2ccc(C#CC#Cc3ccc(-c4cnc([C@@H]5CCCN5C(=O)[C@H](NC(=O)OC)C(C)C)[nH]4)cc3)cc2)[nH]1)C(C)C [Compound 2b, Dimethyl ((2R,2′R)-((2S,2′S)-((buta-1,3-diyne-1,4-diylbis(4,1-phenylene))bis(1H-imidazole-5,2-diyl))bis(pyrrolidine-2,1-diyl))bis(3-methyl-1-oxobutane-1,2-diyl))dicarbamate]
HCV Replicon 1b SI50 [1]: >248.20 | EC50 [1, 3]: 403 nM | CC50 at 72 h [2]: > 100000 nM

CCOC(=O)N[C@@H](CC(C)C)C(=O)N1CCC[C@H]1c1ncc(-c2cccc(C#CC#Cc3cccc(-c4cnc([C@@H]5CCCN5C(=O)[C@H](CC(C)C)NC(=O)OCC)[nH]4)c3)c2)[nH]1 [Compound 7a, Diethyl ((2S,2′S)-((2S,2′S)-((buta-1,3-diyne-1,4-diylbis(3,1-phenylene))bis(1H-imidazole-5,2-diyl))bis(pyrrolidine-2,1-diyl))bis(4-methyl-1-oxopentane-1,2-diyl))dicarbamate]
HCV Replicon 1b SI50 [1]: >1021.55 | EC50 [1, 4]: 97.8 nM | EC50 ([1]; Huh5-2 cells, Con1 strain, F-Luc, 72 h, read-out: HCV Replicon 1b EC50): 97.9 nM | CC50 at 72 h [2]: > 100000 nM

COC(=O)N[C@H](C(=O)N1CCC[C@H]1c1ncc(-c2ccc(C#CC#Cc3ccc(-c4cnc([C@@H]5CCCN5C(=O)[C@@H](NC(=O)OC)c5ccccc5)[nH]4)cc3)cc2)[nH]1)c1ccccc1 [Compound 9b, Dimethyl ((1S,1′S)-((2S,2′S)-((buta-1,3-diyne-1,4-diylbis(4,1-phenylene))bis(1H-imidazole-5,2-diyl))bis(pyrrolidine-2,1-diyl))bis(2-oxo-1-phenylethane-2,1-diyl))dicarbamate]
HCV Replicon 1b SI50 [1]: >542.59 | EC50 [1, 3]: 184 nM | CC50 at 72 h [2]: > 100000 nM

COC(=O)N[C@H](C(=O)N1CCC[C@H]1c1ncc(-c2ccc(C#CC#Cc3ccc(-c4cnc([C@@H]5CCCN5C(=O)[C@@H](NC(=O)OC)C(C)C)[nH]4)cc3)cc2)[nH]1)C(C)C [Compound 1b, Dimethyl ((2S,2′S)-((2S,2′S)-((buta-1,3-diyne-1,4-diylbis(4,1-phenylene))bis(1H-imidazole-5,2-diyl))bis(pyrrolidine-2,1-diyl))bis(3-methyl-1-oxobutane-1,2-diyl))dicarbamate]
HCV Replicon 1b SI50 [1]: >1113.58 | EC50 [1, 3]: 89.8 nM | CC50 at 72 h [2]: > 100000 nM
